Experiment [1] concerns isolated and perfused rat pancreas. The note with it: cited from earlier work.
A further experiment relates to dog. The note with it: cited from earlier work.
Another experiment relates to fed rats. The note with it: cited from earlier work.
The subject of experiment [2] is rat isolated and perfused pancreas. Nature of the experiment: Pancreatic flow rate (vascular resistance) in isolated perfused rat pancreas. The note with it: for change in pancreatic flow rate: baseline 2.5 mL/min at time 45 min = 100%. The method, then:
(§1) The effects of the compounds on insulin secretion and vascular resistance in the rat isolated and perfused pancreas were evaluated in the presence of a slightly stimulating glucose concentration (8.3 mmol/L).
(§2) Experiments were performed in vitro in isolated perfused pancreas from male Wistar albino rats fed ad libitum and weighing 300-350 g. The pancreas was completely isolated according to a technique previously described (Loubatières et al., Diabetologia, 1969, 5, 1-10) and perfused through its own arterial system with a Krebs-Ringer bicarbonate buffer containing 8.3 mmol/L glucose and 2 g/L bovine serum albumin. A mixture of O2 (95%) and CO2 (5%) was bubbled through this medium at atmospheric pressure. The pH of the solution was 7.35. The preparation was maintained at 37.5° C. Each organ was perfused at a constant pressure (40-50 cm water) selected so as to produce a flow rate of 2.5 ml/min at the start of the experiment; in these conditions, any change in the flow rate reflects a change in vascular resistance (Hillaire-Buys et al., Eur. J. Pharmacol., 1991, 199, 309-314). A 30 min adaptation period was allowed before the first sample was taken for insulin assay. A sample was taken 15 min later, at time 45 min. Then, an infusion of ATP analogues was performed during 30 min. The pancreatic flow rate was recorded and insulin was measured in the effluent fractions.
(§3) Results are expressed as means±standard error of the mean (SEM). For the kinetics of insulin secretion and vascular flow rate, the results are expressed as changes in relation to the value at time 45 min taken as 100%. For the determination of the concentration-response relationship, the mean insulin output rate was calculated as follows: the area under the curve for the drug infusion period divided by the number of minutes (AUC/30).

Experiment [3] deals with Normal (non diabetic) Wistar rats. Nature of the experiment: Effect on glycemia in vivo, glucose tolerance test. Details: species or system rat. The note with it: in percent of baseline values, single oral dose 0.2 mg/kg, glucose 2 g/kg i.p., 0-60 min, individual animals 1-4. The method, then: Normal (non diabetic) Wistar rats were treated with a single oral dose of VK 38A (0.2 mg/kg) or placebo (vehicle) administered just before a glucose tolerance test, in a cross-over experimental design with a 7-day wash-out period. Glucose (2 g/kg) was administered by intraperitoneal injection. Blood samples were taken before and 10, 20, 30, 60 minutes after glucose load to measure glycemia. The area under the curve of plasma glucose concentrations (in percent of baseline values) was calculated. Results in four animals are given in Table 2 (baseline glucose concentrations were 1.26±0.02 and 1.26±0.04 g/L in control and treated animals, respectively).

For experiment [4], the system named is rat isolated and perfused pancreas. The experiment can be described thus: Insulin secretion from isolated perfused rat pancreas (8.3 mmol/L glucose). The method, then:
as §1, §2
Insulin was assayed by the radioimmunological method of Herbert et al. (J. Clin. Endocrinol. Metab., 1965, 25, 1375-1384) using a purified rat insulin as standard (Linco Research, St. Charles, Mo., USA) and anti-insulin serum (ICN Biochemicals, Miles, Puteaux, France). The assay sensitivity was 0.1 ng/ml. Insulin output from perfused pancreas is expressed as ng/min and was determined by multiplying the hormone concentration in the effluent fraction by the flow rate.
as §3

The test system of a further experiment is rat isolated pancreas. The experiment can be described thus: Glucose-dependence of the insulin response in the isolated rat pancreas. As to conditions: 20 nmol/L during 20 minutes, mean±sem. The method, then: The rat isolated pancreas is perfused in vitro with a physiological medium containing different concentrations of glucose. VK 38A is added during 20 minutes at 20 nmol/L. Insulin response is determined by the area under the concentration-time curve during VK 38A administration and is expressed as mean±sem.

Setting [5] is: injected directly to the pancreatico-duodenal artery.
Where [6] appears, read: conscious dogs, oral administration.

Values joined by “and” are separate entries in the source; they are usually repeats but may differ in a detail not shown here. Equal values may be shown once. Read-outs that look alike come from different tables or passages of the source.

For `CCCCCCSc1nc(N)c2ncn([C@H]3O[C@@H](COP(O)(=S)OP(=O)(O)OP(=O)(O)O)[C@H](O)[C@@H]3O)c2n1` (stereo partly drawn) [2-hexylthio-ATP-α-S], the “enhancement of potency relative to ATP” value in experiment [1] (insulin secretion) was 100 fold. Also, the “increase in glucose-induced insulin secretion” value in experiment [1] (nM concentration range) is “up to 500%”.

As for `CSc1nc(N)c2ncn([C@@H]3O[C@H](COP(=O)(O)OP(=O)(O)OP(=O)(O)O)[C@@H](O)[C@H]3O)c2n1` [2-methylthio-ATP], in the experiment on dog (setting [5]), the glycemia result was “slightly decreased glycemia” and the insulin release entry is “stimulated insulin release”.

Turning to `Nc1ncnc2c1ncn2[C@@H]1O[C@H](COP(=O)(O)OP(O)(O)=S)[C@@H](O)[C@H]1O` [ADP-β-S, Adenosine 5′-O-(2-thio)diphosphate], in the experiment with fed rats, the Insulin response result is “sustained insulin response” and the glycemia result is reported as “reduction of glycemia”. Moreover, in the experiment with dog (setting [6]), the glycemia result is reported as “reducing glycemia” and the insulinemia result was “transiently increasing insulinemia”.

As to `BP(=O)(OC[C@H]1O[C@@H](n2cnc3c(N)nc(SC)nc32)[C@H](O)[C@@H]1O)OP(=O)(O)OP(=O)(O)O` (stereo partly shown) [VK 38A, 2-methylthioadenosine-5′-O-(1-boranotriphosphate)], the results for the “change in pancreatic flow rate” value in experiment [2] (0.5 μmol/L), in experiment [2] (1.5 μmol/L) and in experiment [2] (5.0 μmol/L) were −6±3%, −10±3% and −8±6%, respectively. Besides, the “vascular effects (pancreatic flow rate)” value in experiment [2] (till 150 nmol/L) is recorded as “no significant effect”. In addition, the “AUC (VK38A-treated): area under the curve of plasma glucose concentrations” value in experiment [3] is 158 and 201 and 134 and 176. The “maximal effect on insulin secretion (AUC for 30 min in % per min)” value in experiment [4] is listed as “approximately 900%”. The “transient monophasic insulin response” value in experiment [4] (1.5 nmol/L, value at time 45 min taken as 100%) was found to be 230%. The “concentration range of immediate and concentration-dependent insulin response” value in experiment [4] (30 min infusion) was in the range of 0.0015 to 5.0 µmol/L. Also, the figures for the Insulin response in the experiment with rat isolated pancreas (glucose 2.8 mmol/L), in the experiment with rat isolated pancreas (glucose 5.0 mmol/L) and in the experiment on rat isolated pancreas (glucose 8.3 mmol/L) were 0.97 ± 0.03 ng/min, 2.68 ± 0.52 ng/min and 33.12 ± 1.75 ng/min, respectively.

As for `BP(=O)(OC[C@H]1O[C@@H](n2cnc3c(N)nc(SC)nc32)[C@H](O)[C@@H]1O)OP(=O)(O)OP(=O)(O)O` (stereo partly shown) [VK 38B, 2-methylthioadenosine-5′-O-(1-boranotriphosphate)], the “transient reduction in pancreatic flow rate (increase in vascular resistance)” value in experiment [2] (from the concentration of 15 nmol/L) is −27±5%. Further, the “insulin response compared with VK 38A” value in experiment [4] was “less potent than that induced by isomer A”.

In the case of `BP(=O)(OC[C@H]1O[C@@H](n2cnc3c(N)ncnc32)[C@H](O)[C@@H]1O)OP(=O)(O)OP(=O)(O)O` (stereo partly shown) [VK 39A, adenosine-5′-O-(1-boranotriphosphate)], the results for the “change in pancreatic flow rate” value in experiment [2] (0.5 μmol/L) and in experiment [2] (5.0 μmol/L) were “+7±3%” and “+10±3%”, respectively. Moreover, the “insulin response compared with VK 38A” value in experiment [4] is on record as “clearly less potent than that of VK 38 A”.

`BP(=O)(OC[C@H]1O[C@@H](n2cnc3c(N)nc(Cl)nc32)[C@H](O)[C@@H]1O)OP(=O)(O)OP(=O)(O)O` (stereo partly shown) [VK 44A, 2-chloroadenosine-5′-O-(1-boranotriphosphate)]: the “change in pancreatic flow rate” value in experiment [2] (0.015 μmol/L) is listed as “+8±3%”; in experiment [2] (0.15 μmol/L) it was “+16±5%”; in experiment [2] (1.5 μmol/L), “+12±5%”. Further, the “insulin response compared with VK 38A” value in experiment [4] is given as “comparable to that of VK 38A”.

Values taken from patent US7319093B2, “Antidiabetic 2-substituted-5′-O-(1-Boranotriphosphate) adenosine derivatives” (Bar-Ilan University, priority 2001, dated 2008).
